Test results: ChEMBL document CHEMBL4011590, “Structure-activity relationship studies on 3,5-dinitrophenyl tetrazoles as antitubercular agents” (Eur J Med Chem, 2017)
≈ marks a conversion by molar mass, not a printed value.

Columns and labels:
Aspergillus fumigatus [1] = assay: Antifungal activity against Aspergillus fumigatus 231 after 24 hrs by broth microdilution method; type: functional; conditions: Aspergillus fumigatus, 231, 24 h
Candida tropicalis [2] = assay: Antifungal activity against Candida tropicalis 156 after 48 hrs by broth microdilution method; type: functional; conditions: Candida tropicalis, 156, 48 h
Staphylococcus aureus [3] = assay: Antibacterial activity against Staphylococcus aureus ATCC 6538 after 48 hrs by broth microdilution method; type: functional; conditions: ATCC 6538, 48 h
Staphylococcus aureus [4] = assay: Antibacterial activity against methicillin-resistant Staphylococcus aureus HK5996/08 after 24 hrs by broth microdilution method; type: functional; conditions: HK5996/08, 24 h
Nakaseomyces glabratus [5] = assay: Antifungal activity against Candida glabrata 20/I after 24 hrs by broth microdilution method; type: functional
Klebsiella pneumoniae [6] = assay: Antibacterial activity against Klebsiella pneumoniae HK11750/08 after 24 hrs by broth microdilution method; type: functional; conditions: HK11750/08, 24 h
Enterococcus sp. [7] = assay: Antibacterial activity against Enterococcus sp. HK14365/08 after 48 hrs by broth microdilution method; type: functional; conditions: HK14365/08, 48 h
Candida tropicalis [8] = assay: Antifungal activity against Candida tropicalis 156 after 24 hrs by broth microdilution method; type: functional; conditions: Candida tropicalis, 156, 24 h
Trichosporon asahii [9] = assay: Antifungal activity against Trichosporon asahii 1188 after 48 hrs by broth microdilution method; type: functional; conditions: Trichosporon asahii, 1188, 48 h
[10] = system: Mycobacterium tuberculosis; assay: Antimycobacterial activity against Mycobacterium tuberculosis H37Rv CNCTC My 331/88 after 21 days by micromethod; type: functional; conditions: H37Rv CNCTC My 331/88, 504 h
CHO-K1 = assay: Cytotoxicity against CHOK1 cells after 24 hrs by MTT assay; type: cell-based; conditions: Cricetulus griseus, CHO-K1, 24 h
Pseudomonas aeruginosa [11] = assay: Antibacterial activity against Pseudomonas aeruginosa ATCC 9027 after 24 hrs by broth microdilution method; type: functional; conditions: ATCC 9027, 24 h
Lichtheimia corymbifera [12] = assay: Antifungal activity against Absidia corymbifera 272 after 24 hrs by broth microdilution method; type: functional; conditions: Lichtheimia corymbifera, 272, 24 h
Aspergillus fumigatus [13] = assay: Antifungal activity against Aspergillus fumigatus 231 after 48 hrs by broth microdilution method; type: functional; conditions: Aspergillus fumigatus, 231, 48 h
Pichia kudriavzevii [14] = assay: Antifungal activity against Candida krusei E28 after 24 hrs by broth microdilution method; type: functional; conditions: E28, 24 h
Mycobacterium avium [15] = assay: Antimycobacterial activity against Mycobacterium avium CNCTC My 330/80 after 21 days by micromethod; type: functional; conditions: CNCTC My 330/80, 504 h
Escherichia coli [16] = assay: Antibacterial activity against Escherichia coli ATCC 8739 after 48 hrs by broth microdilution method; type: functional; conditions: ATCC 8739, 48 h
Mycobacterium kansasii [17] = assay: Antimycobacterial activity against Mycobacterium kansasii isolate 6509/96 after 14 days by micromethod; type: functional; conditions: isolate 6509/96, 336 h
Mycobacterium kansasii [18] = assay: Antimycobacterial activity against Mycobacterium kansasii isolate 6509/96 after 7 days by micromethod; type: functional; conditions: isolate 6509/96, 168 h
Pichia kudriavzevii [19] = assay: Antifungal activity against Candida krusei E28 after 48 hrs by broth microdilution method; type: functional; conditions: E28, 48 h
[20] = system: Staphylococcus epidermidis; assay: Antibacterial activity against Staphylococcus epidermidis HK6966/08 after 48 hrs by broth microdilution method; type: functional; conditions: HK6966/08, 48 h
Mycobacterium avium [21] = assay: Antimycobacterial activity against Mycobacterium avium CNCTC My 330/80 after 14 days by micromethod; type: functional; conditions: CNCTC My 330/80, 336 h
Klebsiella pneumoniae [22] = assay: Antibacterial activity against Klebsiella pneumoniae HK11750/08 after 48 hrs by broth microdilution method; type: functional; conditions: HK11750/08, 48 h
Enterococcus sp. [23] = assay: Antibacterial activity against Enterococcus sp. HK14365/08 after 24 hrs by broth microdilution method; type: functional; conditions: HK14365/08, 24 h
Staphylococcus aureus [24] = assay: Antibacterial activity against Staphylococcus aureus ATCC 6538 after 24 hrs by broth microdilution method; type: functional; conditions: ATCC 6538, 24 h
Escherichia coli [25] = assay: Antibacterial activity against Escherichia coli ATCC 8739 after 24 hrs by broth microdilution method; type: functional; conditions: ATCC 8739, 24 h
Klebsiella pneumoniae [26] = assay: Antibacterial activity against extended spectrum beta-lactamase producing Klebsiella pneumoniae HK14368/08 after 24 hrs by broth microdilution method; type: functional; conditions: HK14368/08, 24 h
Pseudomonas aeruginosa [27] = assay: Antibacterial activity against Pseudomonas aeruginosa ATCC 9027 after 48 hrs by broth microdilution method; type: functional; conditions: ATCC 9027, 48 h
Mycobacterium kansasii [28] = assay: Antimycobacterial activity against Mycobacterium kansasii CNCTC My 235/80 after 21 days by micromethod; type: functional; conditions: CNCTC My 235/80, 504 h
Staphylococcus aureus [29] = assay: Antibacterial activity against methicillin-resistant Staphylococcus aureus HK5996/08 after 48 hrs by broth microdilution method; type: functional; conditions: HK5996/08, 48 h
Mycobacterium kansasii [30] = assay: Antimycobacterial activity against Mycobacterium kansasii isolate 6509/96 after 21 days by micromethod; type: functional; conditions: isolate 6509/96, 504 h
Lichtheimia corymbifera [31] = assay: Antifungal activity against Absidia corymbifera 272 after 48 hrs by broth microdilution method; type: functional; conditions: Lichtheimia corymbifera, 272, 48 h
[32] = system: Trichophyton mentagrophytes; assay: Antifungal activity against Trichophyton mentagrophytes 445 after 120 hrs by broth microdilution method; type: functional; conditions: Trichophyton mentagrophytes, 445, 120 h
Mycobacterium kansasii [33] = assay: Antimycobacterial activity against Mycobacterium kansasii CNCTC My 235/80 after 14 days by micromethod; type: functional; conditions: CNCTC My 235/80, 336 h
[34] = system: Staphylococcus epidermidis; assay: Antibacterial activity against Staphylococcus epidermidis HK6966/08 after 24 hrs by broth microdilution method; type: functional; conditions: HK6966/08, 24 h
Nakaseomyces glabratus [35] = assay: Antifungal activity against Candida glabrata 20/I after 48 hrs by broth microdilution method; type: functional
Trichosporon asahii [36] = assay: Antifungal activity against Trichosporon asahii 1188 after 24 hrs by broth microdilution method; type: functional; conditions: Trichosporon asahii, 1188, 24 h
Candida albicans [37] = assay: Antifungal activity against Candida albicans ATCC 44859 after 48 hrs by broth microdilution method; type: functional; conditions: ATCC 44859, 48 h
[38] = system: Trichophyton mentagrophytes; assay: Antifungal activity against Trichophyton mentagrophytes 445 after 72 hrs by broth microdilution method; type: functional; conditions: Trichophyton mentagrophytes, 445, 72 h
Candida albicans [39] = assay: Antifungal activity against Candida albicans ATCC 44859 after 24 hrs by broth microdilution method; type: functional; conditions: ATCC 44859, 24 h
[40] = system: Mycobacterium tuberculosis; assay: Antimycobacterial activity against Mycobacterium tuberculosis H37Rv CNCTC My 331/88 after 14 days by micromethod; type: functional; conditions: H37Rv CNCTC My 331/88, 336 h
Klebsiella pneumoniae [41] = assay: Antibacterial activity against extended spectrum beta-lactamase producing Klebsiella pneumoniae HK14368/08 after 48 hrs by broth microdilution method; type: functional; conditions: HK14368/08, 48 h
Mycobacterium kansasii [42] = assay: Antimycobacterial activity against Mycobacterium kansasii CNCTC My 235/80 after 7 days by micromethod; type: functional; conditions: CNCTC My 235/80, 168 h

SMILES: Cc1ccc(Cn2nnc(-c3cc([N+](=O)[O-])cc([N+](=O)[O-])c3)n2)cc1
- MIC (Aspergillus fumigatus [1]): > 500 µM
- MIC (Candida tropicalis [2]): > 500 µM
- MIC (Staphylococcus aureus [3]): 31.2 µM (≈ 10.6 µg/mL)
- MIC (Staphylococcus aureus [4]): > 500 µM
- MIC (Nakaseomyces glabratus [5]): > 500 µM
- MIC (Klebsiella pneumoniae [6]): > 500 µM
- MIC (Enterococcus sp. [7]): > 500 µM
- MIC (Candida tropicalis [8]): > 500 µM
- MIC (Trichosporon asahii [9]): > 500 µM
- MIC99 [10]: 0.125 µM (≈ 0.0425 µg/mL)
- IC50 (CHO-K1): 200 µM
- MIC (Pseudomonas aeruginosa [11]): > 500 µM
- MIC (Lichtheimia corymbifera [12]): > 500 µM
- MIC (Aspergillus fumigatus [13]): > 500 µM
- MIC (Pichia kudriavzevii [14]): > 500 µM
- MIC99 (Mycobacterium avium [15]): 16 µM (≈ 5.44 µg/mL)
- MIC (Escherichia coli [16]): > 500 µM
- MIC99 (Mycobacterium kansasii [17]): 0.5 µM (≈ 0.17 µg/mL)
- MIC99 (Mycobacterium kansasii [18]): 0.25 µM (≈ 0.0851 µg/mL)
- MIC (Pichia kudriavzevii [19]): > 500 µM
- MIC [20]: 62.5 µM (≈ 21.3 µg/mL)
- MIC99 (Mycobacterium avium [21]): 8 µM (≈ 2.72 µg/mL)
- MIC (Klebsiella pneumoniae [22]): > 500 µM
- MIC (Enterococcus sp. [23]): > 500 µM
- MIC (Staphylococcus aureus [24]): 31.2 µM (≈ 10.6 µg/mL)
- MIC (Escherichia coli [25]): > 500 µM
- MIC (Klebsiella pneumoniae [26]): > 500 µM
- MIC (Pseudomonas aeruginosa [27]): > 500 µM
- MIC99 (Mycobacterium kansasii [28]): 1 µM (≈ 0.34 µg/mL)
- MIC (Staphylococcus aureus [29]): > 500 µM
- MIC99 (Mycobacterium kansasii [30]): 0.5 µM (≈ 0.17 µg/mL)
- MIC (Lichtheimia corymbifera [31]): > 500 µM
- MIC [32]: > 500 µM
- MIC99 (Mycobacterium kansasii [33]): 1 µM (≈ 0.34 µg/mL)
- MIC [34]: 62.5 µM (≈ 21.3 µg/mL)
- MIC (Nakaseomyces glabratus [35]): > 500 µM
- MIC (Trichosporon asahii [36]): > 500 µM
- MIC (Candida albicans [37]): > 500 µM
- MIC [38]: > 500 µM
- MIC (Candida albicans [39]): > 500 µM
- MIC99 [40]: 0.125 µM (≈ 0.0425 µg/mL)
- MIC (Klebsiella pneumoniae [41]): > 500 µM
- MIC99 (Mycobacterium kansasii [42]): 0.5 µM (≈ 0.17 µg/mL)

SMILES: COc1cccc(-n2nnnc2SCn2nnc(-c3cc([N+](=O)[O-])cc([N+](=O)[O-])c3)n2)c1
- MIC (Aspergillus fumigatus [1]): > 500 µM
- MIC (Candida tropicalis [2]): > 500 µM
- MIC (Staphylococcus aureus [3]): > 125 µM
- MIC (Staphylococcus aureus [4]): > 125 µM
- MIC (Nakaseomyces glabratus [5]): > 500 µM
- MIC (Klebsiella pneumoniae [6]): > 125 µM
- MIC (Enterococcus sp. [7]): > 125 µM
- MIC (Candida tropicalis [8]): > 500 µM
- MIC (Trichosporon asahii [9]): > 500 µM
- MIC99 [10]: 0.03 µM (≈ 0.0137 µg/mL)
- IC50 (CHO-K1): 135 µM
- MIC (Pseudomonas aeruginosa [11]): > 125 µM
- MIC (Lichtheimia corymbifera [12]): > 500 µM
- MIC (Aspergillus fumigatus [13]): > 500 µM
- MIC (Pichia kudriavzevii [14]): > 500 µM
- MIC99 (Mycobacterium avium [15]): 16 µM (≈ 7.3 µg/mL)
- MIC (Escherichia coli [16]): > 125 µM
- MIC99 (Mycobacterium kansasii [17]): 1 µM (≈ 0.456 µg/mL)
- MIC99 (Mycobacterium kansasii [18]): 0.5 µM (≈ 0.228 µg/mL)
- MIC (Pichia kudriavzevii [19]): > 500 µM
- MIC [20]: > 125 µM
- MIC99 (Mycobacterium avium [21]): 8 µM (≈ 3.65 µg/mL)
- MIC (Klebsiella pneumoniae [22]): > 125 µM
- MIC (Enterococcus sp. [23]): > 125 µM
- MIC (Staphylococcus aureus [24]): > 125 µM
- MIC (Escherichia coli [25]): > 125 µM
- MIC (Klebsiella pneumoniae [26]): > 125 µM
- MIC (Pseudomonas aeruginosa [27]): > 125 µM
- MIC99 (Mycobacterium kansasii [28]): 2 µM (≈ 0.913 µg/mL)
- MIC (Staphylococcus aureus [29]): > 125 µM
- MIC99 (Mycobacterium kansasii [30]): 1 µM (≈ 0.456 µg/mL)
- MIC (Lichtheimia corymbifera [31]): > 500 µM
- MIC [32]: > 500 µM
- MIC99 (Mycobacterium kansasii [33]): 1 µM (≈ 0.456 µg/mL)
- MIC [34]: > 125 µM
- MIC (Nakaseomyces glabratus [35]): > 500 µM
- MIC (Trichosporon asahii [36]): > 500 µM
- MIC (Candida albicans [37]): > 500 µM
- MIC [38]: > 500 µM
- MIC (Candida albicans [39]): > 500 µM
- MIC99 [40]: 0.03 µM (≈ 0.0137 µg/mL)
- MIC (Klebsiella pneumoniae [41]): > 125 µM
- MIC99 (Mycobacterium kansasii [42]): 1 µM (≈ 0.456 µg/mL)
